Results reported in ChEMBL document CHEMBL5331123, “Potent Dual Inhibitors of Steroid Sulfatase and 17β-Hydroxysteroid Dehydrogenase Type 1 with a Suitable Pharmacokinetic Profile for In Vivo Proof-of-Principle Studies in an Endometriosis Mouse Model” (J Med Chem, 2023).
Converted amounts (≈) assume the structure as drawn.

Assays:
Steryl-sulfatase [1] = target: T1, Steryl-sulfatase (Homo sapiens, UniProt P08842); assay: Inhibition of human STS expressed in human T47D cells using [3H]E1S as substrate incubated for 1 hr followed by substrate addition measured after 24 hrs in presence of E1S by HPLC analysis; assay type: cell-based
T1 sequence (P08842 whole entry): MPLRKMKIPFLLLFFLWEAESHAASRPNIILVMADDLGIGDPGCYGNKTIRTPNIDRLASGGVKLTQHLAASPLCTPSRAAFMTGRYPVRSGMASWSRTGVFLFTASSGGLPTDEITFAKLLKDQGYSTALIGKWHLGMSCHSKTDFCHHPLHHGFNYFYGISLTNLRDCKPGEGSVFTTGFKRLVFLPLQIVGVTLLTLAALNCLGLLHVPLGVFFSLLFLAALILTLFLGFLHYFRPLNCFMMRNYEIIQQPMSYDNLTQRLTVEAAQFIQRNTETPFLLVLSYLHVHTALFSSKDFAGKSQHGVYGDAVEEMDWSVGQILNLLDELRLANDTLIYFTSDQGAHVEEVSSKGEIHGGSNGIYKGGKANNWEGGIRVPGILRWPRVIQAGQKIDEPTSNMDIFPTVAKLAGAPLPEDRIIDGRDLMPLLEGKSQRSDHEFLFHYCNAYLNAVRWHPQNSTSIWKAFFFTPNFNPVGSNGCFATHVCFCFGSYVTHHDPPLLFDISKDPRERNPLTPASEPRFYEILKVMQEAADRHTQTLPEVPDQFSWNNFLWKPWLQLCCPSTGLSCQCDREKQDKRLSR

[2] = target: T2, 17-beta-hydroxysteroid dehydrogenase type 1 (Homo sapiens, UniProt P14061); assay: Inhibition of human 17beta-HSD1 expressed in human T47D cells using [3H]E1 as substrate incubated for 1 hr followed by substrate addition measured after 40 mins in presence of E1 by HPLC analysis; assay type: cell-based
T2 sequence (P14061 whole entry): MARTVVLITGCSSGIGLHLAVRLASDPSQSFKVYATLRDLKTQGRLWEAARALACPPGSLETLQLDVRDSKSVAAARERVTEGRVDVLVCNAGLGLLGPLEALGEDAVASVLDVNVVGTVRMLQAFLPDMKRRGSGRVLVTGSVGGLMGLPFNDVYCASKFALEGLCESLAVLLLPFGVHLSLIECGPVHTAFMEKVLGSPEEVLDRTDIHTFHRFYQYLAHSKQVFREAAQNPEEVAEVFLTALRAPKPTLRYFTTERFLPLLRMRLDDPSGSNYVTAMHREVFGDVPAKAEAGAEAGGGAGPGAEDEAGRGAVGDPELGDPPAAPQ

[3] = target: T2, 17-beta-hydroxysteroid dehydrogenase type 1; assay: Inhibition of human placental cytosolic fraction 17beta-HSD1 using [3H]E1 as substrate measured after 10 mins in presence of NADH by HPLC analysis; assay type: tissue-based, Placenta
[4] = target: T3, 17-beta-hydroxysteroid dehydrogenase type 2 (Homo sapiens, UniProt P37059); assay: Inhibition of human placental microsomal fraction 17beta-HSD2 using [3H]E2 as substrate measured after 20 mins in presence of NAD+ by HPLC analysis; assay type: microsomes, Placenta, Microsome
T3 sequence (P37059 whole entry): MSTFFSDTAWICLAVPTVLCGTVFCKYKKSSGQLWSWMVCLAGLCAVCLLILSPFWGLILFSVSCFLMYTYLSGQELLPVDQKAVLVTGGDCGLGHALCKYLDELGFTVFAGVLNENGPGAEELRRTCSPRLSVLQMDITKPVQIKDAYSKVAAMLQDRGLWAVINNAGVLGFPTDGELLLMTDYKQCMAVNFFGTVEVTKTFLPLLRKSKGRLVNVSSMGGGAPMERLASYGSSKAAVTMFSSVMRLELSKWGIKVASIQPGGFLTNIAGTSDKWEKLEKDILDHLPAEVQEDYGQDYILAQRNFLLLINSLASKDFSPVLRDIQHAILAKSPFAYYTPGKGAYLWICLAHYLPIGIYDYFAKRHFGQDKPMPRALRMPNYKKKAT

Homo sapiens [5] = species on record: Homo sapiens; assay: Selectivity ratio of IC50 for human placental microsomal fraction 17beta-HSD2 to IC50 for human placental microsomal fraction 17beta-HSD1
[6] = Metabolic stability in human liver S9 fraction assessed as intrinsic clearance measured upto 60 mins in presence of NADPH by LC-MS/MS analysis; assay type: ADME, subcellular; details: read-out: CLH
[7] = Metabolic stability in human liver S9 fraction assessed as half life measured upto 60 mins in presence of NADPH by LC-MS/MS analysis; assay type: ADME, subcellular; details: for half-life: liver S9 fraction
[8] = Metabolic stability in mouse liver S9 fraction assessed as half life measured upto 60 mins in presence of NADPH by LC-MS/MS analysis; assay type: ADME, subcellular; details: for half-life: liver S9 fraction
Steryl-sulfatase [9] = target: T1, Steryl-sulfatase; assay: Irreversible inhibition of human STS expressed in human T47D cells using [3H]E1S as substrate preincubated for 2 hr followed by substrate addition measured after 24 hrs in presence of E1S by HPLC analysis; assay type: cell-based
HEK293 = assay: Cytotoxicity against HEK293 cells assessed as cell growth inhibition by measuring lethal concentration measured after 72 hrs by MTT assay; assay type: functional, Homo sapiens
HepG2 = assay: Cytotoxicity against human HepG2 cells assessed as cell growth inhibition by measuring lethal concentration measured after 48 hrs by MTT assay; assay type: functional
[10] = target: T4, Aryl hydrocarbon receptor (Homo sapiens, UniProt P35869); assay: Activation of AhR in human HepG2 cells assessed as increase in CYP1A1 activity at 3.16 uM measured after 48 hrs by fluorescence based analysis; assay type: cell-based; details: hepg2, 48 h
T4 sequence (P35869 whole entry): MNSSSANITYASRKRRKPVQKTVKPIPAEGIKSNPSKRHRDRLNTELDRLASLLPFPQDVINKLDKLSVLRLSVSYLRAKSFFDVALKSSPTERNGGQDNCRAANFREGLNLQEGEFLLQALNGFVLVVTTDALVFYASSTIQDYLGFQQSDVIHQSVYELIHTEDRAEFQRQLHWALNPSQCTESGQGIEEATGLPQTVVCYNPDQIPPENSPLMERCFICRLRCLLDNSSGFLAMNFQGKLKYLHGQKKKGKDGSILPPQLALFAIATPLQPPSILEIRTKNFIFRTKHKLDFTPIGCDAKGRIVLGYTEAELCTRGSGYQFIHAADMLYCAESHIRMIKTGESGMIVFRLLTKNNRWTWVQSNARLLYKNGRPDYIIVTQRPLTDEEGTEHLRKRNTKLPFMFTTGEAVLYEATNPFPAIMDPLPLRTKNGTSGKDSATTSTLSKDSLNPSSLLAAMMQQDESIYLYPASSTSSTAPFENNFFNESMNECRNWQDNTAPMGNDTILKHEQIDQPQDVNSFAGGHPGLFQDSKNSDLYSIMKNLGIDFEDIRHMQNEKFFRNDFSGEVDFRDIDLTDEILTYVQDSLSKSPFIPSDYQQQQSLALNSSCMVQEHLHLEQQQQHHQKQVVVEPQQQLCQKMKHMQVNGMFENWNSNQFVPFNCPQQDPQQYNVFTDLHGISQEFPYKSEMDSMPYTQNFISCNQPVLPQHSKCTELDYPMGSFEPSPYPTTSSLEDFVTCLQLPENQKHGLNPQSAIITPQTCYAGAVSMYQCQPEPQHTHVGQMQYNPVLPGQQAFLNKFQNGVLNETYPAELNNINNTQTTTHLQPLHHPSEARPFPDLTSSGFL

[11] = Observed Cmax in C57BL/6 mouse at 50 mg/kg, sc administered as single dose measured upto 24 hrs by HPLC-MS/MS analysis; assay type: ADME, organism-based; design: time < 24 hrs, dose 50 mg/kg, route sc; details: in vivo
[12] = Drug concentration in C57BL/6 mouse at 50 mg/kg, sc administered as single dose measured after 24 hrs by HPLC-MS/MS analysis; assay type: ADME, organism-based; details: in vivo, read-out: Drug uptake
[13] = Half life in C57BL/6 mouse at 50 mg/kg, sc administered as single dose measured after 24 hrs by HPLC-MS/MS analysis; assay type: ADME, organism-based; details: in vivo
[14] = AUC(0 to 24 hrs) in C57BL/6 mouse at 50 mg/kg, sc administered as single dose measured after 24 hrs by HPLC-MS/MS analysis; assay type: ADME, organism-based; design: time 24 hrs, dose 50 mg/kg, route sc; details: in vivo
[15] = Lipophilicity, logD of compound at pH 7.4; assay type: physicochemical; details: buffer
[16] = Aqueous solubility of compound in PBS measured after 1 to 24 hrs; assay type: physicochemical; details: time 1-24 hrs
[17] = Oral bioavailability in C57BL/6 mouse at 50 mg/kg administered as single dose measured after 24 hrs by HPLC-MS/MS analysis; assay type: ADME, organism-based; details: in vivo
[18] = Cmax in C57BL/6 mouse at 50 mg/kg, sc administered as single dose ever day measured after 2 hrs by HPLC-MS/MS analysis; assay type: ADME, organism-based; design: dose 50 mg/kg, time 2 hrs, route sc; details: in vivo
[19] = Cmin in C57BL/6 mouse at 50 mg/kg, sc administered as single dose ever day measured after 24 hrs by HPLC-MS/MS analysis; assay type: ADME, organism-based; details: in vivo, read-out: Cmin
Homo sapiens [20] = species on record: Homo sapiens; assay: Selectivity ratio of IC50 for human 17beta-HSD2 to IC50 for human 17beta-HSD1
[21] = target: T5, Steryl-sulfatase (Homo sapiens) (UniProt P08842); assay: Inhibition of human STS expressed in human T47D cells at 1 uM using [3H]E1S as substrate incubated for 1 hr followed by substrate addition measured after 24 hrs in presence of E1S by HPLC analysis relative to control; assay type: cell-based; details: time 25.0 hrs
T5 sequence (whole entry): T1 sequence (P08842 whole entry)

SMILES	IC50 (Steryl-sulfatase [1]) [nM]	IC50 [2] [nM]	IC50 [3] [nM]	IC50 [4] [nM]	Ratio IC50 (Homo sapiens [5])	microsomal CLint [6] [µL/min/mg]	half-life [7] [min]	half-life [8] [min]	other results
Cc1cc(-c2ccc(C(=O)N(C)c3ccc(OS(N)(=O)=O)c(Cl)c3)o2)cc(C)c1O	38	88	400	2400	6				
C[C@]12CC[C@H]3[C@@H](CCC4=CC(=O)CC[C@@]43C)[C@@H]1CC[C@@H]2O [TESTOSTERONE]						74.5			
Cc1cc(OS(N)(=O)=O)ccc1N(C)C(=O)c1ccc(-c2cc(C)c(O)c(C)c2)o1	400	11	43	6200	145	8.2	85.2	56.1	IC50 (Steryl-sulfatase [9]): 420 nM; LC20 (HEK293): <=31 uM; LC20 (HepG2): 23000 nM; Activity [10]: Not Active; Cmax [11]: 2820 nM; concentration at 24 h [12]: 797 nM; half-life [13]: 229 min; AUC(0-t) at 24 h [14]: 11600 ng·h/mL; logD [15]: 2.2; solubility [16]: 40 µM (≈ 17.2 µg/mL); bioavailability [17]: 1.5%; Cmax [18]: 2350 nM; concentration at 24 h [19]: 800 nM
Cc1ccccc1N(C)C(=O)c1ccc(-c2cc(C)c(O)c(C)c2)o1		2.9			570	18.2	38	19	Ratio IC50 (Homo sapiens [20]): 563; t1/2 ([7]; s9, 1 h, 1 h): 38.1 min; t1/2 ([8]; s9, 1 h, 1 h): 19.1 min; inhibition [21]: < 10%
Cc1cc(-c2ccc(C(=O)N(C)c3cccc(OS(N)(=O)=O)c3C)o2)cc(C)c1O		58							inhibition [21]: < 10%
Cc1cc(-c2ccc(C(=O)N(C)c3ccc(OS(N)(=O)=O)cc3)o2)cc(C)c1O	150	110	430	7700	18				
Cc1cc(-c2ccc(C(=O)N(C)c3cccc(OS(N)(=O)=O)c3)o2)cc(C)c1O	92	80	180	6400	36				
Cc1ccc(OS(N)(=O)=O)cc1N(C)C(=O)c1ccc(-c2cc(C)c(O)c(C)c2)o1	450	3.2	16	4400	275	35.9	19.3	28.5	IC50 (Steryl-sulfatase [9]): 460 nM; LC20 (HEK293): <=38 uM; LC20 (HepG2): 28000 nM; Activity [10]: Not Active; Cmax [11]: 517 nM; concentration at 24 h [12]: 49 nM; half-life [13]: 129 min; AUC(0-t) at 24 h [14]: 1900 ng·h/mL; logD [15]: 2.68; solubility [16]: 20 µM (≈ 8.61 µg/mL)
Cc1cc(-c2ccc(C(=O)N(C)c3c(C)cccc3OS(N)(=O)=O)o2)cc(C)c1O		140							inhibition [21]: < 10%; Activity [10]: Not Active
Cc1cc(-c2ccc(C(=O)N(C)c3ccc(OS(N)(=O)=O)c(F)c3)o2)cc(C)c1O	83	140	500	3200	6				
O=C(c1ccc(-c2ccc(O)cc2)s1)c1c(F)ccc(O)c1F							< 5		Ratio IC50 (Homo sapiens [20]): 24
Cc1cc(OS(N)(=O)=O)c(Cl)cc1N(C)C(=O)c1ccc(-c2cc(C)c(O)c(C)c2)o1	76	53	68	7500	110	19.4	35.6	22.5	IC50 (Steryl-sulfatase [9]): 79 nM; LC20 (HEK293): <=27 uM; LC20 (HepG2): 31000 nM; Cmax [11]: 400 nM; concentration at 24 h [12]: 62 nM; half-life [13]: 169 min; AUC(0-t) at 24 h [14]: 1900 ng·h/mL; logD [15]: 2.75; solubility [16]: 20 µM (≈ 9.3 µg/mL)
NS(=O)(=O)Oc1ccc(-c2ccc(C(=O)c3c(F)ccc(O)c3F)s2)cc1Cl	15				33		< 5	< 5	Ratio IC50 (Homo sapiens [20]): 36
O=c1ccc2ccc(O)cc2o1 [UMBELLIFERONE]						139			
